Test results published in patent US9481639B2, “Substituted tetracycline compounds for treatment of inflammatory skin disorders” (Paratek Pharmaceuticals, Inc., priority 2006, dated 2016).
Converted amounts (≈) assume the structure as drawn. Read-outs that look alike come from different tables or passages of the source.

Columns and labels:
[1] = in vitro; format: cell-based
Method: Mammalian cell cytotoxicity was assessed to evaluate potential in vivo risks associated with the tetracycline compounds of the invention. A soluble, non-toxic redox dye (“Resazurin”; Alamar Blue) was used to assess a tetracycline compound's effect on cellular metabolism. At the onset of the experiment, cultures of mammalian COS-1 or CHO cells were washed, trypsinized, and harvested. […] On the next day, serial dilutions of test drug were prepared under sterile conditions and transferred to cell plates. Plates were then incubated under the above conditions for 24 hours. Following the incubation period, the media/drug was aspirated, and 50 μL of resazurin was added. Plates were then incubated under the above conditions for 2 hours and then in the dark at room temperature for an additional 30 minutes. Fluorescence measurements were taken (excitation 535 nm, emission 590 nm) and toxic effects in treated versus control cells were compared based on the degree of fluorescence in each well.

[2] = tested on: B. thetaiotaomicron ATCC 29741; assay: Antibacterial MIC, CLSI broth microdilution; format: cell-based
Method: Gram (−) and gram (+) antibacterial minimum inhibitory concentration (MIC) values (μg/mL) were obtained using CLSI methodology for anti-bacterial susceptibility testing. On each day of testing, serial dilutions of compounds were prepared in microdilution plates using a Tecan robotic workstation. Mueller Hinton broth cultures of representative sensitive and resistant gram negative strains were grown or adjusted to match the turbidity of a 0.5 McFarland standard. 1:200 dilutions were made in an appropriate broth (cation supplemented Mueller Hinton broth) to allow a final inoculum of 1×10^5 cfu. Plates were incubated at 35° C. in ambient air for 18-24 hours, were read spectrophotometrically and checked manually for evidence of bacterial growth. The lowest dilution of compound that inhibited growth was recorded as the MIC. Lysed horse blood was used to supplement broth for testing S. pneumoniae. The MIC's for each compound were assessed against S. aureus, S. pneumoniae, P. acnes, E. coli and B. theta.

[3] = Bacteroides thetaiotaomicron, ATCC29741, read-out: MIC B. thetaiotaomicron ATCC 29741

Row | IC50 at 24 h ([1]; African green monkey) [µg/mL] | IC50 at 24 h ([1]; Chinese hamster) [µg/mL] | MIC ([2]; Bacteroides thetaiotaomicron, ATCC29741; read-out: MIC B. thetaiotaomicron ATCC 29741) [µg/mL] | Compound | MIC [2, 3] [µg/mL]
1 | < 35 | < 35 | – | COC(=O)CONCc1ccc(O)c2c1C[C@H]1C[C@H]3[C@H](N(C)C)C(O)=C(C(N)=O)C(=O)[C@@]3(O)C(O)=C1C2=O [AX] | –
2 | > 75 | > 75 | – | CN(C)[C@@H]1C(O)=C(C(N)=O)C(=O)[C@@]2(O)C(O)=C3C(=O)c4c(O)ccc(CNOCCF)c4C[C@H]3C[C@@H]12 [Compound AO, (4S,4aS,5aR,12aS)-4-Dimethylamino-7-[(2-fluoro-ethoxyamino)-methyl]-3,10,12,12a-tetrahydroy-1,11-dioxo-1,4,4a,5,5a,6,11,12a-octahydro-naphthacene-2-carboxylic acid amide] | –
3 | > 75 | > 75 | – | CN(C)[C@H]1C(O)=C(C(N)=O)C(=O)[C@@]2(O)C(O)=C3C(=O)c4c(O)ccc(CNOCC(F)(F)F)c4C[C@H]3C[C@@H]12 [AU] | –
4 | 35 to 75 (≈ 71.8 to 154 µM) | 35 to 75 (≈ 71.8 to 154 µM) | 4 to 8 (≈ 8.2 to 16.4 µM) | CON(C)Cc1ccc2c(c1O)C(=O)C1=C(O)[C@]3(O)C(=O)C(C(N)=O)=C(O)[C@@H](N(C)C)[C@@H]3C[C@@H]1C2 [Compound AP] | –
5 | 35 to 75 (≈ 68.2 to 146 µM) | 35 to 75 (≈ 68.2 to 146 µM) | – | CN(C)[C@@H]1C(O)=C(C(N)=O)C(=O)[C@@]2(O)C(O)=C3C(=O)c4c(O)ccc(CN5CCCCO5)c4C[C@H]3C[C@@H]12 [AV] | –
6 | < 35 | < 35 | – | CC(C)ONCc1ccc(O)c2c1C[C@H]1C[C@H]3[C@H](N(C)C)C(O)=C(C(N)=O)C(=O)[C@@]3(O)C(O)=C1C2=O [Compound AN, (4S,4aS,5aR,12aS)-4-Dimethylamino-3,10,12,12a-tetrahydroxy-7-(isopropoxyamino-methyl)-1,11-dioxo-1,4,4a,5,5a,6,11,12a-octahydro-naphthacene-2-carboxylic acid amide] | –

Continued, compound first:

Row | Compound | IC50 at 24 h ([1]; African green monkey) [µg/mL] | IC50 at 24 h ([1]; Chinese hamster) [µg/mL] | MIC ([2]; Bacteroides thetaiotaomicron, ATCC29741; read-out: MIC B. thetaiotaomicron ATCC 29741) [µg/mL] | MIC [2, 3] [µg/mL]
7 | CN(C)[C@H]1C(O)=C(C(N)=O)C(=O)[C@@]2(O)C(O)=C3C(=O)c4c(O)ccc(CNOCC(F)F)c4C[C@H]3C[C@@H]12 [AS] | > 75 | > 75 | – | –
8 | CN(C)[C@@H]1C(O)=C(C(N)=O)C(=O)[C@@]2(O)C(O)=C3C(=O)c4c(O)ccc(CNOCC(F)(F)F)c4C[C@H]3C[C@@H]12 [AT] | < 35 | < 35 | – | –
9 | CN(C)[C@@H]1C(O)=C(C(N)=O)C(=O)[C@@]2(O)C(O)=C3C(=O)c4c(O)ccc(CNOCC(F)F)c4C[C@H]3C[C@@H]12 [AR] | < 35 | 35 to 75 (≈ 66.9 to 143 µM) | – | –
10 | CON(C)Cc1ccc(O)c2c1C[C@H]1C[C@H]3[C@H](N(C)C)C(O)=C(C(N)=O)C(=O)[C@@]3(O)C(O)=C1C2=O [Compound P] | – | – | – | 4 to 8 (≈ 8.2 to 16.4 µM)
11 | CCONCc1ccc2c(c1O)C(=O)C1=C(O)[C@]3(O)C(=O)C(C(N)=O)=C(O)[C@@H](N(C)C)[C@@H]3C[C@@H]1C2 [AQ] | < 35 | < 35 | – | –
12 | CON(C)Cc1ccc(O)c2c1C[C@H]1C[C@H]3[C@@H](N(C)C)C(O)=C(C(N)=O)C(=O)[C@@]3(O)C(O)=C1C2=O [Y] | – | – | – | > 8
